The results in this text go back to patent publication US20160186196A1 (priority 2009, published 2016).

What all share (format): cell-based, Chlamydomonas reinhardtii
For assay [1], the system named is C. reinhardtii UTEX 2244 and transformants. Put plainly: Rose Bengal photooxidative stress kill curves in liquid culture. The note with it: 2 μM Rose Bengal, within the first five hours of exposure. Here is the method: Exposure of C. reinhardtii to Rose Bengal was performed as follows. In order to induce apoptosis in C. reinhardtii by the mechanism of photooxidative stress, algal cells were grown on solid medium containing various concentrations of the photosensitizing dye Rose Bengal as described in Fischer et al. (Plant Sci, 168:747-759 (2005)). Duplicate plates with RB levels as high as up to 2.0 μM were initially spread with 1×10^3 cells and resulting colonies were counted after a: period of one week. UTEX 2244 was used as a control. Cell viability is reported as a percentage of surviving cells. Additionally, kill curves were conducted in liquid culture using 100-ml stirrer flasks under the same cultivation conditions mentioned previously, with the exception of aeration. Each culture was seeded with an inoculum of exponentially growing cells (1×10^6 cells ml^−1) and the cell density was measured with a Zeiss Axiovert™ 100 inverted light microscope using a hemocytometer over a one-week period. In the experimental flasks, 100x RB dissolved in isopropanol stock solution was added three days after inoculation to cultures of approximately 0.2×10^6 cells ml^−1 in order achieve a final concentration of 2.0 μM; control flasks were unaltered.

Assay [2] has as its system bleomycin-resistant C. reinhardtii stable transformants. Put plainly: Bleocin kill curves on solid medium, mixed population of wild-type and bleomycin-resistant cells. The following applies: mixed population wild-type:bleomycin-resistant cells 5×10^7:1×10^3, solid medium, two weeks. Here is the method: (§1) Exposure of C. reinhardtii to antibiotic selective pressure was performed as follows. In order to test the efficacy of the antibiotic bleocin (EMD Biosciences) on C. reinhardtii UTEX 2244, algal cells were grown on solid medium containing various concentrations of this selective agent—0, 0.25, 0.5, 1.0, 2.0, 4.0, 6.0, and 8.0 mg L^−1. Duplicate plates were initially spread with either 1×10^3 or 5×10^7 wild-type cells and the cultures' viability was examined over a period of two weeks. Once stable transformants were obtained, this experiment was repeated with a mixed population of wild-type and bleomycin-resistant cells (5×10^7:1×10^3) to verify the emergence of individual colonies from the surrounding lawn of algal cells.

A further assay has as its system C. reinhardtii UTEX 2244. Put plainly: Minimum inhibitory bleocin concentration on solid medium, wild-type cells. Here is the method:
as §1

As to `O=C([O-])c1c(Cl)c(Cl)c(Cl)c(Cl)c1-c1c2cc(I)c(=O)c(I)c-2oc2c(I)c([O-])c(I)cc12.[Na+].[Na+]` [Rose Bengal], the “effect on cell populations” value in assay [1] is given as “all populations experienced some cell death”.

For bleocin, the “bleocin concentration in which some stable transformants were able to survive” value in assay [2] is no more than 8 mg/L. Also, the “minimum inhibitory concentration (M.I.C.) to eradicate the entire population” value in the assay with C. reinhardtii UTEX 2244 (high density lawn, 5×10^7 cells per plate, two-week incubation) was “at least 1 mg L^−1”. The “concentration sufficient to completely inhibit growth (absence of colony formation)” value in the assay with C. reinhardtii UTEX 2244 (low density, 1,000 cells per plate, solid medium) turned out to be 0.25 mg/L. For the same molecule, the “concentration giving widespread cell death” value in the assay on C. reinhardtii UTEX 2244 (within only four days of exposure) is recorded as “more than 4 mg L^−1”.
